According to the supplement of paper PMC3974653:
Counter-ions that a name gives are not always drawn.

Tested on: MTT (mouse pheochromocytoma)
Assay: IC50 of cell viability (ATP content)
Conditions: (24 or 48 h)
In short: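 Library compounds in DMSO (23 nl by pintool, 8 concentrations, final 0.5 nM to 46 µM) were applied for 24 or 48 hrs to MTT mouse pheochromocytoma cells that had been cultured overnight at 37°C, 5% CO2 in white 1536-well plates. Cell viability was measured by CellTiter-Glo ATP luminescence, read after 15 minutes, with positive-control wells set at 100% and DMSO wells at 0%. A four-parameter logistic fit of the normalised signals yielded the IC50.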

Row | Structure (SMILES) | IC50 of cell viability
1 | CC(C)/N=c1\cc2n(-c3ccc(Cl)cc3)c3ccccc3nc-2cc1Nc1ccc(Cl)cc1 [Clofazimine] | > 46 µM
2 | N[S+](=O)([O-])c1ccc(Cl)c([S+](N)(=O)[O-])c1 [Clofenamide] | > 46 µM
3 | O=C(CCl)c1ccc(Oc2ccc(C(=O)CCl)cc2)cc1 [Clofenoxyde] | > 46 µM
4 | CCOC(=O)C(C)(C)Oc1ccc(Cl)cc1 [Clofibrate] | > 46 µM
5 | CC(C)(Oc1ccc(Cl)cc1)C(=O)O [Clofibric_acid] | > 46 µM
6 | O=C(Nc1ccc(Cl)cc1)Nc1ccc(Cl)c(C(F)(F)F)c1 [Cloflucarban] | > 46 µM
7 | CCOC(=O)NC(C)(C)Cc1ccc(Cl)cc1 [Cloforex] | > 46 µM
8 | COc1ccc2c(C(=O)c3ccc(Cl)cc3)c(C)n(CC(=O)O)c2c1 [Clometacine] | > 46 µM
9 | C[C@@H]1CCC[C@H](C)N1NC(=O)c1ccc(Cl)c([S+](N)(=O)[O-])c1 [Clopamide] | > 46 µM
10 | Clc1ccc([C@@H](OCCN2CCCCC2)c2ccccc2)cc1 [Cloperastine hydrochloride] | > 46 µM
11 | Cc1cc(CC(=O)O)c(C)n1-c1ccc(Cl)cc1 [Clopirac] | > 46 µM
12 | C#CCN(C)CCCOc1ccc(Cl)cc1Cl.Cl [Clorgyline hydrochloride] | > 46 µM
13 | O=C1c2ccccc2C(=O)C1c1ccc(Cl)cc1 [Clorindione] | > 46 µM
14 | Oc1ccc(Cl)cc1Cc1ccccc1 [Clorophene] | > 46 µM
15 | Nc1cc(C(Cl)=C(Cl)Cl)c([S+](N)(=O)[O-])cc1[S+](N)(=O)[O-] [Clorsulon] | > 46 µM
16 | C[C@]12CCC3C(CCC4=C(Cl)C(=O)CC[C@@]43C)C1CCC2O (some centres not stated) [Clostebol] | > 46 µM
17 | CN1CCN(C2=Nc3ccccc3Sc3ccc(Cl)cc32)CC1 [Clothiapine] | > 46 µM
18 | Clc1ccccc1C(c1ccccc1)(c1ccccc1)n1ccnc1 [Clotrimazole] | > 46 µM
19 | [Na+].CC1=C(C(=O)N[C@H]2[C@H]3SC(C)(C)[C@H]([N@]3C2=O)C([O-])=O)C(=NO1)C4=C(Cl)C=CC=C4 [Cloxacillin sodium salt] | > 46 µM
20 | O.O.O.O.O.O.O.O=S(=O)([O-])[O-].[Co+2] [Cobalt sulfate heptahydrate] | > 46 µM
21 | COC1=C2OC3C(O)\C=C/C4[C@H]5CC(=C2[C@@]34CCN5C)C=C1 (some centres not stated) [Codeine] | > 46 µM
22 | COC1=C(OC)C(=O)C(C/C=C(\C)CC/C=C(\C)CC/C=C(\C)CC/C=C(/C)CC/C=C(\C)CC/C=C(\C)CC/C=C(\C)CC/C=C(\C)CC/C=C(\C)CCC=C(C)C)=C(C)C1=O [Coenzyme Q10] | > 46 µM
23 | CCCCC(CC)COC(=O)CC(C(=O)OCC(CC)CCCC)S(=O)(=O)[O-] (configuration not stated) [Colace] | > 46 µM
24 | CC(C)CCCC(C)C1CC(=O)C2=C3CCC4CC(O)CCC4(C)C3CCC21C (configuration not stated) [Colestolone] | > 46 µM
25 | C[C@]\12CCC(=O)\C=C1CC[C@@H]3[C@@H]2CC[C@@]4(C)[C@H]3CC[C@]4(O)C(=O)CO [Cortexolone] | > 46 µM
26 | C[C@]12C[C@H](O)[C@H]3[C@@H](CCC/4=C/C(=O)CC[C@]34C)[C@@H]1CC[C@@H]2C(=O)CO [Corticosterone] | > 46 µM

Row | Structure (SMILES) | IC50 of cell viability
27 | CC(=O)OCC(=O)[C@@]1(O)CC[C@H]2[C@@H]3CCC/4=C/C(=O)CC[C@]4(C)[C@H]3C(=O)C[C@]12C [Cortisone 21-acetate] | > 46 µM
28 | O=C\1OC2=C(C=CC=C2)\C=C1 [Coumarin] | > 46 µM
29 | OC(COC1=CC=CC2=C1C(=O)\C=C(/O2)C(O)=O)COC3=CC=CC4=C3C(=O)\C=C(/O4)C(O)=O [Cromolyn sodium] | > 46 µM
30 | C/C=C\C(=O)N(CC)c1ccccc1C [Crotamiton] | > 46 µM
31 | C/C=C/C=N/NC(=O)c1ccncc1 [Crotoniazida] | > 46 µM
32 | N#CN [Cyanamide] | > 46 µM
33 | CC1(C)S[C@H]2[C@H](NC(=O)C3(N)CCCCC3)C(=O)[N@]2[C@H]1C(O)=O [Cyclacillin] | > 46 µM
34 | O=S(=O)(O)NC1CCCCC1 [Cyclamic acid] | > 46 µM
35 | CN1CCN(C(c2ccccc2)c2ccccc2)CC1 [Cyclizine hydrochloride] | > 46 µM
36 | CC1(C)\N=C(N)/N=C(/N)N1C2=CC=C(Cl)C=C2 [Cycloguanil HCl] | > 46 µM
37 | N[S+](=O)([O-])c1cc2c(cc1Cl)N[C@@H](CC1CCCC1)N[S+]2(=O)[O-] [Cyclopenthiazide] | > 46 µM
38 | CN(C)CCOC(=O)[C@@H](c1ccccc1)C1(O)CCCC1 [Cyclopentolate hydrochloride] | > 46 µM
39 | O=P1(N(CCCl)CCCl)NCCCO1 (configuration not stated) [Cyclophosphamide] | > 46 µM
40 | C/C=C\C[C@H](C)[C@H](O)[C@H]1C(=O)N[C@@H](CC)C(=O)N(C)CC(=O)N(C)[C@@H](CC(C)C)C(=O)N[C@@H](C(C)C)C(=O)N(C)[C@@H](CC(C)C)C(=O)N[C@@H](C)C(=O)N[C@@H](C)C(=O)N(C)[C@@H](CC(C)C)C(=O)N(C)[C@@H](CC(C)C)C(=O)N(C)[C@@H](C(C)C)C(=O)N1C [Cyclosporin A] | > 46 µM
41 | NC(=O)C1c2ccccc2CCc2ccccc21 [Cyheptamide] | > 46 µM
42 | CC1(C)C(\C=C(/Cl)Cl)C1C(=O)OC(C#N)C2=CC=CC(OC3=CC=CC=C3)=C2 (configuration not stated) [Cypermethrin] | > 46 µM
43 | Cl.NCCS [Cysteamine hydrochloride] | > 46 µM
44 | NCCS [Cysteamine] | > 46 µM
45 | COP(=S)(OC)Oc1ccc([S+](N)(=O)[O-])cc1 [Cythioate] | > 46 µM
46 | C[N+](C)(C)CCOP(=O)([O-])OP(=O)([O-])OCC1OC(n2ccc(N)nc2=O)[C@H](O)[C@@H]1O (some centres not stated) [Cytidine 5'-diphosphocholine sodium salt hydrate] | > 46 µM
47 | OCC1(O)OC[C@@H](O)[C@H](O)[C@@H]1O (stereo partly drawn) [D-(-)-TAGATOSE] | > 46 µM
48 | C[C@@H](N)C(=O)O [D-ALANINE] | > 46 µM
49 | NC(=O)C[C@@H](N)C(=O)O [D-ASPARAGINE] | > 46 µM
50 | N[C@H](CC(=O)O)C(=O)O [D-ASPARTIC ACID] | > 46 µM
51 | N[C@H](CCC(=O)O)C(=O)O [D-GLUTAMIC ACID] | > 46 µM
52 | NC(=O)CC[C@@H](N)C(=O)O [D-GLUTAMINE] | > 46 µM

Row | Structure (SMILES) | IC50 of cell viability
53 | O=C[C@H](O)[C@@H](O)[C@H](O)[C@H](O)CO [D-Glucose] | > 46 µM
54 | CC(C)C[C@@H](N)C(=O)O [D-LEUCINE] | > 46 µM
55 | O=C(CO)C(O)C(O)C(O)CO [D-LEVULOSE] | > 46 µM
56 | C=C(C)C1CC=C(C)CC1 [D-LIMONENE] | > 46 µM
57 | OC[C@@H](O)[C@@H](O)[C@H](O)[C@H](O)CO [D-Mannitol] | > 46 µM
58 | CC(C)(CO)[C@@H](O)C(=O)NCCC(=O)[O-] [D-Pantothenic acid hemicalcium salt] | > 46 µM
59 | N[C@H](CO)C(=O)O [D-SERINE] | > 46 µM
60 | N[C@H](Cc1c[nH]c2ccccc12)C(=O)O [D-TRYPTOPHAN] | > 46 µM
61 | N[C@@H]1CONC1=O [D-cycloserine] | > 46 µM
62 | CCNC(=O)NCCCOc1cccc(CN2CCCCC2)c1 [DALCOTIDINE] | > 46 µM
63 | O=C(O)Cc1ccc(CCN[S+](=O)([O-])c2ccc(Cl)cc2)cc1 [DALTROBANUM] | > 46 µM
64 | O=C1CN(/N=C/c2ccc(-c3ccc([N+](=O)[O-])cc3)o2)C(=O)N1 [DANTROLENE] | > 46 µM
65 | NC(=O)C(c1ccccc1)(c1ccccc1)[C@@H]1CCN(CCc2ccc3c(c2)CCO3)C1 [DARIFENACIN HYDROBROMIDE] | > 46 µM
66 | CC(C)CN(C[C@@H](O)[C@H](Cc1ccccc1)NC(=O)O[C@@H]1CO[C@H]2OCC[C@H]21)[S+](=O)([O-])c1ccc(N)cc1 [DARUNAVIR ETHANOLATE] | > 46 µM
67 | Cc1nc(Nc2ncc(C(=O)Nc3c(C)cccc3Cl)s2)cc(N2CCN(CCO)CC2)n1 [DASATINIB] | > 46 µM
68 | O=C(O)c1ccc(OCCn2ccnc2)cc1 [DAZOXIBENUM] | > 46 µM
69 | O=C([O][Na])C(Cl)Cl [DCA] | > 46 µM
70 | CC(=O)N[C@@H](CCC(=O)O)C(=O)O [DEANOLI ACEGLUMAS] | > 46 µM
71 | C[N+](C)(C)CCCCCCCCCC[N+](C)(C)C [DECAMETHONIUM] | > 46 µM
72 | CCCCCCCCCC(=O)NO [DECANOHYDROXAMIC ACID] | > 46 µM
73 | CCCCCCCCCCOc1cc2c(O)c(C(=O)OCC)cnc2cc1OCC [DECOQUINATE] | > 46 µM
74 | CCCCCCCC/C=C\CCCCCCCCN [DECTAFLURUM] | > 46 µM
75 | O=C(O)c1ccc(-n2nc(-c3ccccc3O)nc2-c2ccccc2O)cc1 [DEFERASIROX] | > 46 µM
76 | CC1C(=O)C(=O)C=CN1C (configuration not stated) [DEFERIPRONE] | > 46 µM
77 | C=C1N[C@]2(C(=O)COC(C)=O)[C@@H](C[C@H]3[C@@H]4CCC5=CC(=O)C=C[C@]5(C)[C@H]4[C@@H](O)C[C@@]32C)O1 [DEFLAZACORT] | > 46 µM
